Source: US11413348B2, “Low molecular weight cationic lipids for oligonucleotide delivery” (SIRNA THERAPEUTICS, INC., priority 2010, dated 2022)

Tests used:
[1] = Determination of cationic lipid levels in rat liver (LC/MS-MS); assay type: in vivo; conditions: rats, FIG. 3
Procedure: Liver tissue was weighed into 20-ml vials and homogenized in 9 v/w of water using a GenoGrinder 2000 (OPS Diagnostics, 1600 strokes/min, 5 min). A 50 μL aliquot of each tissue homogenate was mixed with 300 μL of extraction/protein precipitating solvent (50/50 acetonitrile/methanol containing 500 nM internal standard) and the plate was centrifuged to sediment precipitated protein. A volume of 200 μL of each supernatant was then transferred to separate wells of a 96-well plate and 10 μl samples were directly analyzed by LC/MS-MS.
Standards were prepared by spiking known amounts of a methanol stock solution of compound into untreated rat liver homogenate (9 vol water/weight liver). Aliquots (50 μL) each standard/liver homogenate was mixed with 300 μL of extraction/protein precipitating solvent (50/50 acetonitrile/methanol containing 500 nM internal standard) and the plate was centrifuged to sediment precipitated protein. A volume of 200 μL of each supernatant was transferred to separate wells of a 96-well plate and 10 μl of each standard was directly analyzed by LC/MS-MS.
Absolute quantification versus standards prepared and extracted from liver homogenate was performed using an Aria LX-2 HPLC system (Thermo Scientific) coupled to an API 4000 triple quadrupole mass spectrometer (Applied Biosystems). […]

CTNNB1 mRNA = assay: Rhesus monkey in vivo evaluation of β-catenin efficacy (liver CTNNB1 mRNA); conditions: beta-catenin siRNA, doses ranging from 0.67-3.34 mg/m^2, intravenous bolus, FIG. 5
Procedure: On study day −7 predose liver biopsy samples (˜0.5-1 gram/sample) were collected from male rhesus monkeys by laparoscopic surgical resection (resection of one biopsy sample from outer edge of one randomly selected liver lobe per monkey). A 5 mm tissue punch was used to sample three non-adjacent ˜50 mg samples from each predose biopsy. Samples were preserved in RNAlater™ (Ambion) for later CTNNB1 mRNA analysis.
On study day 0 monkeys were administered suspensions of the lipid nanoparticle (LNP) test articles in phosphate buffered saline (0.05-0.1 mg siRNA/mL) via single-dose intravenous bolus injection at target doses of 0.67, 1.34 or 3.34 mg siRNA/m^2. […]
CTNNB1 mRNA levels were measured by relative quantitative RT-PCR using a primer/probe set validated for CTNNB1 and normalized against mRNA levels of peptidylprolyl isomerase B (also known as PPIB or cyclophilin B) and RNA levels of 18S ribosomal RNA (18S rRNA). Change in CTNNB1 mRNA liver expression was measured as the difference in PCR threshold cycle number (ΔΔCt) between post-dose samples and each corresponding monkey's predose liver samples.
Calculation of CTNNB1 mRNA knockdown (with respect to pretreatment levels) was calculated from ΔΔCt using the following relationship: mRNA (% knockdown)=100−(100/2^−ΔΔCt)

β-catenin mRNA = assay: TRE-MET HCC mouse pharmacodynamic study (β-catenin mRNA by Taqman in liver and tumor); assay type: in vivo; conditions: intravenous, 72 hours; for knockdown of β-catenin mRNA in both liver and tumor tissues: FIGS. 8, 9, 12, 13
Procedure: The activity LNPs in delivering a β-catenin siRNA (siRNAβ-cat) to hepatocellular carcinoma was evaluated in a mouse hepatocellular carcinoma (HCC) model, named TRE-MET. TRE-MET mice are transgenic mice in an FVB/N genetic background where the human MET transgene is expressed under an hCMV promoter with hepatamerized upstream tet-operators. When TRE-MET mice are crossed with the LAP-tTA line, the double transgenic (TRE-MET/LAP-tTA) mice express MET in a liver-specific manner which can be suppressed by administration of doxycycline. These mice develop HCC at 3 months of age with visually identifiable tumor nodules on the liver surface and the tumors display a diffuse trabecular growth pattern typical for HCC and express the HCC tumor marker alpha-fetoprotein (AFP). In addition, the mutation analysis in the tumor of TRE-MET mice has also identified activating mutations in the beta-catenin gene in approximately 95% of tumors. These features make the TRE-MET HCC mouse model suitable for evaluating LNP-mediated delivery of β-catenin siRNA and the resultant efficacy on tumor growth.
The effect of β-catenin containing LNPs in silencing β-catenin mRNA in both liver and tumor tissues was first evaluated in a pharmacodynamic (PD) study in TRE-MET mice bearing tumors. Different doses of LNPs or a high dose of LNPcontrol siRNA were intravenously administered and 72 hours later, necropsy was performed to collect liver and tumor tissues for the determination of β-catenin mRNA levels by Taqman. […] The KD in tumors ranges from 70% (2 mpk) to about 40% (0.1 or 0.05 mpk).

| SMILES | cationic lipid liver levels compared with RDV containing DLinKC2DMA (Compound 45) or MC3 (Compound 46) [1] | CTNNB1 mRNA knockdown in liver (CTNNB1 mRNA) | β-catenin mRNA KD in normal liver (β-catenin mRNA; 0.05 mpk) [%] | β-catenin mRNA KD in normal liver (β-catenin mRNA; 0.1 mpk) [%] | β-catenin mRNA KD in tumors (β-catenin mRNA; 0.1 or 0.05 mpk) | β-catenin mRNA KD in tumors (β-catenin mRNA; 0.25 mpk) [%] | knockdown of β-catenin mRNA in both liver and tumor tissues (β-catenin mRNA) | β-catenin mRNA KD in tumors (β-catenin mRNA; 2 mpk) [%] |
| --- | --- | --- | --- | --- | --- | --- | --- | --- |
| CCCCC/C=C\C/C=C\CCCCCCCCCC(CCCCCCCCC)CCN(C)C (centres unmarked) [Compound 32, (13Z,16Z)—N,N-dimethyl-3-nonyldocosa-13,16-dien-1-amine] | either similar to or lower than | robust KD | 78 | 76 | 20-30% | 47 | robust and dose-dependent knockdown |  |
| CCCCCCCCCC(CCCCCCCC1CC1CCCCCCCC)N(C)C [Compound 33, N,N-dimethyl-1-[(1S,2R)-2-octylcyclopropyl]hepladecan-8-amine] | either similar to or lower than | robust KD | 69 | 88 | about 40% |  | robust and dose-dependent knockdown | 70 |
